Results reported in the SangsterLogP compilation.

Key:
[1] = method code SF-AS, from DOI: 10.1016/0048-3575(87)90042-3
[2] = method code SF-GLC, from DOI: 10.1016/0048-3575(87)90042-3

SMILES	logP [1]	logP [2]
CNC(=O)NC(C)=O	–	-0.7
CCNC(=O)NC(=O)c1ccccc1	1.92	–
O=C(NC(=O)c1ccccc1)Nc1ccccc1	3.39	–
CNC(N)=O	–	-1.4
CCNC(=O)NC(C)=O	–	-0.01
Cc1cccc([N+](=O)[O-])c1C(=O)NC(=O)Nc1ccc(Cl)cc1	3.75	–

Now from value to compound:

logP [1]	logP [2]	SMILES
4.35	–	COc1ccccc1C(=O)NC(=O)Nc1ccc(Cl)cc1
1.27	–	CNC(=O)NC(=O)c1ccccc1
0.12	–	Cc1cccc([N+](=O)[O-])c1C(N)=O
0.83	–	NC(=O)Nc1ccccc1
0.84	–	COc1ccccc1C(N)=O
0.25	–	NC(=O)c1c(F)cccc1F
1.6	–	CC(=O)NC(=O)Nc1ccccc1
